The values that follow come from BindingDB's records for doi:10.1016/S0960-894X(00)80224-3 (1992).

The structures appear in SMILES notation.

The target of the experiment is Gastrin/cholecystokinin type B receptor (Cavia porcellus). In words: Displacement of [125I]CCK-OP radioligand from Cholecystokinin type B receptor of guinea pig cortical membranes.
In general, IC50 refers to the concentration that inhibits the measured activity by half. Lower therefore signals higher potency. With `O=C(N[C@@H]1C(=O)N(c2ccccc2)C[C@@H]1C(=O)O)c1ccc2ccccc2c1` [(3S,4S)-4-[(Naphthalene-2-carbonyl)-amino]-5-oxo-1-phenyl-pyrrolidine-3-carboxylic acid], the IC50 is > 10 µM.
With `O=C(N[C@@H]1C(=O)N(c2ccccc2F)C[C@@H]1C(=O)O)c1cnc2ccccc2c1` [(3S,4S)-1-(2-Fluoro-phenyl)-5-oxo-4-[(quinoline-3-carbonyl)-amino]-pyrrolidine-3-carboxylic acid] the figure was > 10 µM; with `O=C(N[C@H]1C(=O)N(c2ccccc2)C[C@@H]1C(=O)O)c1ccc2ccccc2c1` [(3S,4R)-4-[(Naphthalene-2-carbonyl)-amino]-5-oxo-1-phenyl-pyrrolidine-3-carboxylic acid], > 10 µM; with `O=C(N[C@@H]1C(=O)N(c2ccccc2F)C[C@@H]1C(=O)O)c1ccc2ccccc2c1` [(3S,4S)-1-(2-Fluoro-phenyl)-4-[(naphthalene-2-carbonyl)-amino]-5-oxo-pyrrolidine-3-carboxylic acid], > 10 µM.
